Assays:
A-375 [1] = experiment: Antiproliferative activity against human A375 cells assessed as reduction in cell growth at 8 uM incubated for 72 hrs by CCK-8 assay relative to control; assay type: functional; conditions: A-375, 72 h
A-375 [2] = experiment: Antiproliferative activity against human A375 cells assessed as reduction in cell growth at 2 uM incubated for 72 hrs by CCK-8 assay relative to control; assay type: functional; conditions: A-375, 72 h
HeLa [3] = experiment: Antiproliferative activity against human HeLa cells assessed as reduction in cell growth at 8 uM incubated for 72 hrs by CCK-8 assay relative to control; assay type: functional
HeLa [4] = experiment: Antiproliferative activity against human HeLa cells assessed as reduction in cell growth at 2 uM incubated for 72 hrs by CCK-8 assay relative to control; assay type: functional
A549 [5] = experiment: Antiproliferative activity against human A549 cells assessed as reduction in cell growth at 8 uM incubated for 72 hrs by CCK-8 assay relative to control; assay type: functional; conditions: A549, 72 h
A549 [6] = experiment: Antiproliferative activity against human A549 cells assessed as reduction in cell growth at 2 uM incubated for 72 hrs by CCK-8 assay relative to control; assay type: functional; conditions: A549, 72 h
HCT-116 [7] = experiment: Antiproliferative activity against human HCT116 cells assessed as reduction in cell growth at 8 uM incubated for 72 hrs by CCK-8 assay relative to control; assay type: functional; conditions: HCT-116, 72 h
HCT-116 [8] = experiment: Antiproliferative activity against human HCT116 cells assessed as reduction in cell growth at 2 uM incubated for 72 hrs by CCK-8 assay relative to control; assay type: functional; conditions: HCT-116, 72 h
SMMC-7721 [9] = experiment: Antiproliferative activity against human SMMC7721 cells assessed as reduction in cell growth at 8 uM incubated for 72 hrs by CCK-8 assay relative to control; assay type: functional; conditions: SMMC-7721, 72 h
SMMC-7721 [10] = experiment: Antiproliferative activity against human SMMC7721 cells assessed as reduction in cell growth at 2 uM incubated for 72 hrs by CCK-8 assay relative to control; assay type: functional; conditions: SMMC-7721, 72 h
HCT-116 [11] = experiment: Antiproliferative activity against human HCT116 cells assessed as reduction in cell growth incubated for 72 hrs by CCK-8 assay; assay type: functional, cell-based; conditions: HCT-116, 72 h
SMMC-7721 [12] = experiment: Antiproliferative activity against human SMMC7721 cells assessed as reduction in cell growth incubated for 72 hrs by CCK-8 assay; assay type: functional, cell-based; conditions: SMMC-7721, 72 h
A-375 [13] = experiment: Antiproliferative activity against human A375 cells assessed as reduction in cell growth incubated for 72 hrs by CCK-8 assay; assay type: functional, cell-based; conditions: A-375, 72 h
HeLa [14] = experiment: Antiproliferative activity against human HeLa cells assessed as reduction in cell growth incubated for 72 hrs by CCK-8 assay; assay type: functional, cell-based
A549 [15] = experiment: Antiproliferative activity against human A549 cells assessed as reduction in cell growth incubated for 72 hrs by CCK-8 assay; assay type: functional, cell-based; conditions: A549, 72 h

Compound	inhibition at 8 µM (A-375 [1]) [%]	inhibition at 2 µM (A-375 [2]) [%]	inhibition at 8 µM (HeLa [3]) [%]	inhibition at 2 µM (HeLa [4]) [%]	inhibition at 8 µM (A549 [5]) [%]	inhibition at 2 µM (A549 [6]) [%]	inhibition at 8 µM (HCT-116 [7]) [%]	inhibition at 2 µM (HCT-116 [8]) [%]	inhibition at 8 µM (SMMC-7721 [9]) [%]	inhibition at 2 µM (SMMC-7721 [10]) [%]	IC50 (HCT-116 [11]) [µM]	IC50 (SMMC-7721 [12]) [µM]	IC50 (A-375 [13]) [µM]	IC50 (HeLa [14]) [µM]	IC50 (A549 [15]) [µM]
CCn1c(SCc2ccc(C(=O)Nc3ccccc3N)cc2)nc2cc(Br)ccc2c1=O	40.7	19.8	41.3	30.4	45.4	20.4	68.5	24.8	36.8	22.9	4.33	–	–	–	–
Cc1ccc2nc(SCc3ccc(C(=O)Nc4ccccc4N)cc3)n(C)c(=O)c2c1	73.6	44.6	85.5	63	33.9	18.2	79.3	49.2	75.7	65.6	2.01	1.67	2.57	0.95	–
Cn1c(SCc2ccc(/C=C/C(=O)Nc3ccccc3N)cc2)nc2cc(Cl)ccc2c1=O	10.2	2.4	38.8	29.3	68.8	15.5	21.5	2.1	20.9	7.8	–	–	–	–	16.4
COc1ccc2c(=O)n(-c3cccc(Cl)c3)c(SCc3ccc(C(=O)Nc4ccccc4N)cc3)nc2c1	36	21.7	51.2	12.3	30	20.9	64	22	27	21.3	5.8	–	–	–	–
COc1ccc2c(=O)n(-c3ccccc3C)c(SCc3ccc(C(=O)Nc4ccccc4N)cc3)nc2c1	83.6	39.1	33.1	23.6	54.5	36.3	88.2	73.5	78.1	58.2	1.29	5.37	2.3	–	–
Cc1ccc2c(=O)n(C)c(SCc3ccc(C(=O)Nc4ccccc4N)cc3)nc2c1	88.2	52.9	84.3	59.8	52.7	23.3	74.9	59.8	78.9	41.7	2.47	3.62	1.19	3.12	–
Cc1cccc2c(=O)n(C)c(SCc3ccc(C(=O)Nc4ccccc4N)cc3)nc12	54.9	48.3	51.4	47.3	66.8	38	76.4	42.7	74.4	54.3	3.06	2.67	5.26	–	8.44
CCCn1c(SCc2ccc(/C=C/C(=O)Nc3ccccc3N)cc2)nc2cc(Cl)ccc2c1=O	48.2	20.5	41.5	32.7	61.5	34.3	27.3	18.2	40.2	6.6	–	–	–	–	3.96
Cn1c(SCc2ccc(C(=O)Nc3ccccc3N)cc2)nc2cc(F)ccc2c1=O	64.3	30	84.6	39.7	45	21.3	79.7	51.7	75.1	52.5	2.71	0.9	3.28	4.81	–
COc1ccc2c(=O)n(CCCC[S+](C)[O-])c(SCc3ccc(/C=C/C(=O)Nc4ccccc4N)cc3)nc2c1 (stereo unspecified)	18.8	13.2	41	1.1	62.7	53.8	8.6	4.5	9.9	3.1	–	–	–	–	20
CCCCn1c(SCc2ccc(C(=O)Nc3ccccc3N)cc2)nc2cc(F)ccc2c1=O	43.1	18	30.9	30.9	46.5	41.1	78.2	22.8	41.6	9.1	3.63	–	–	–	–
Cn1c(SCc2ccc(C(=O)Nc3ccccc3N)cc2)nc2cc(Cl)ccc2c1=O	51.2	44.5	76.5	51.1	22.3	21.8	81.5	58.7	73.2	38.9	2.22	3.32	3.01	4.99	–
Cc1ccc2c(=O)n(C)c(SCc3ccc(/C=C/C(=O)Nc4ccccc4N)cc3)nc2c1	36.1	29	27.7	22.1	41.4	20.3	32.2	2.3	63.6	20.2	–	6.45	–	–	–
Cc1cccc2nc(SCc3ccc(C(=O)Nc4ccccc4N)cc3)n(C)c(=O)c12	36.9	35.6	58.3	43.8	41.8	34.7	68.5	29.1	68.5	59.2	–	0.69	–	–	–

Source: ChEMBL document CHEMBL4393680, “Design, synthesis and biological evaluation of novel thioquinazolinone-based 2-aminobenzamide derivatives as potent histone deacetylase (HDAC) inhibitors” (Eur J Med Chem, 2019)
